Tests used:
[1] = Plasma concentrations of liraglutide formulations in db/db mice; format: in vivo; conditions: 200 μg/kg SC daily
Protocol: Treatment Groups: 1. Naïve control normal mice (n=6) • 2. Placebo (vehicle) control db/db mice (n=8) • 3.
• Ad lib fed blood glucose levels were recorded every 3rd day throughout the study period i.e. on Day-1, Day-3, Day-6, Day-9, Day-12, Day-15, Day-18, Day-21, Day-24, and Day-27. […] (before treatment) and 3 hr. post treatment. • On Day-1 and Day-28, blood samples were collected for the measurement of HbA1C levels. • Body weight and feed intake were recorded every day throughout treatment period.

[2] = cited from earlier work
[3] = in vivo; cited from earlier work

Row | Plasma levels (in words) ([1]; post 3 hr. of injection) | Plasma levels (in words) ([1]; post 24 hr. of treatment) | Compound | Steady state therapeutic plasma concentration ([2]; VICTOZA Prescribing Information) | Human range for clinically effective concentrations ([2]; human, Ingwersen S. H. et al. J. Clin. Pharmacol. 2012) | Pharmacokinetic half-life [3]
1 | increase in plasma levels | detectable plasma levels | CCCCCCCCCCCCCCCC(=O)N[C@@H](CCC(=O)NCCCC[C@H](NC(=O)[C@H](C)NC(=O)[C@H](C)NC(=O)[C@H](CCC(N)=O)NC(=O)CNC(=O)[C@H](CCC(=O)O)NC(=O)[C@H](CC(C)C)NC(=O)[C@H](Cc1ccc(O)cc1)NC(=O)[C@H](CO)NC(=O)[C@H](CO)NC(=O)[C@@H](NC(=O)[C@H](CC(=O)O)NC(=O)[C@H](CO)NC(=O)[C@@H](NC(=O)[C@H](Cc1ccccc1)NC(=O)[C@@H](NC(=O)CNC(=O)[C@H](CCC(=O)O)NC(=O)[C@H](C)NC(=O)[C@@H](N)Cc1cnc[nH]1)[C@@H](C)O)[C@@H](C)O)C(C)C)C(=O)N[C@@H](CCC(=O)O)C(=O)N[C@@H](Cc1ccccc1)C(=O)N[C@H](C(=O)N[C@@H](C)C(=O)N[C@@H](Cc1c[nH]c2ccccc12)C(=O)N[C@@H](CC(C)C)C(=O)N[C@H](C(=O)N[C@@H](CCCNC(=N)N)C(=O)NCC(=O)N[C@@H](CCCNC(=N)N)C(=O)NCC(=O)O)C(C)C)[C@@H](C)CC)C(=O)O [L-API, liraglutide] | about 128 ng/mL | 5 to 45 nmol/L | –
2 | – | – | GLP-1 | – | – | 2 to 5 min

Reference: patent US20230256058A1 (MAPI PHARMA LTD., priority 2020, published 2023)
